Results on six molecules are retold here after patent publication US11400078B2, “Methods of treatment for cholestatic and fibrotic diseases” (Genfit, priority 2016, dated 2022).

Bounds are passed on as bounds.

This assay has as its system TGFβ1-induced expression of α-SMA protein in human HSC. Put plainly: α-SMA ELISA in TGFβ1-activated human primary hepatic stellate cells (single agents and NTZ/statin or TZ/statin combination matrix, EOB/EOHSA). The assay is classed as cell-based. The conditions noted are these: hHSC, TGFβ1 1 ng/mL, 48 h; for IC50: Homo sapiens, 1 h preincubation, ELISA, read-out: IC50, reduction of α-SMA level in TGFβ-induced HSC; for antifibrotic activity as single agent (α-SMA, dose-response): result in words. The protocol:
After 48 hours of incubation, the expression of α-SMA was measured by ELISA. […] Data are presented as mean (triplicates)±standard deviation (SD). Statistical analyses were performed by one-way ANOVA followed by Bonferroni post-hoc tests, using Sigma Plot 11.0 software. […] After 48 hours of incubation, the expression of α-SMA was measured by ELISA. […] Data are presented as mean (triplicates)±standard deviation (SD). Statistical analyses were performed by one-way ANOVA followed by Bonferroni post-hoc tests, using Sigma Plot 11.0 software. […] Combinations were tested in a dose-response matrix format and analyzed according to the excess over Bliss (EOB) additivism model. Dilution series of NTZ (column) and pitavastatin (row) were prepared, including their respective DMSO controls. […] Data are presented as mean of quadruplicates. (B) EOB scores were calculated as described in Materials and Methods. Any compound pair with positive EOB values was considered synergistic (colored from light grey to black). […] Data are presented as mean (quadruplicates)±standard deviation (SD). Statistical analyses between single agent vs product combination were performed by student t-test or Mann-Whitney Rank Sum Test using Sigma Plot 11.0 software. [*: p<0.05; **: p<0.01; ***: p<0.001]. […] Cell-culture flasks were coated with poly-L lysine (Sigma cat #P4707) for a better adherence. The checkerboard matrix was adopted. NTZ or TZ and statin stocks were serially diluted in DMSO in a 5-points series in a row (statin) and a column (NTZ or TZ) of a 96-well plate. […] Then, 2-fold and 4-fold higher and lower concentrations were selected. […] The human primary hepatic stellate cells (hHSC) (Innoprot) were cultured under standard conditions, as described above. […] Plates were then incubated for 30 min on ice using a plate shaker, before storage at -20° C. The level of α-SMA was measured using a Sandwich ELISA. Briefly, the wells of an ELISA plate were first coated with the capture antibody (mouse monoclonal anti-ACTA2, Abnova) at 4° C. overnight. […] The cell lysates were transferred into the wells for binding to the capture antibody for a period of 2 h at room temperature. After the washing procedure, the detection antibody (biotinylated mouse monoclonal anti-ACTA2, Abnova) was added for 2 hours at room temperature followed by 3 washes. For the detection, an HRP-conjugated streptavidin (R&D Systems cat #DY998) was first applied for 30 min at room temperature. […] Upon oxidation, TMB forms a water-soluble blue reaction product that becomes yellow with addition of sulfuric acid (solution stop), enabling accurate measurement of the intensity at 450 nm using a spectrophotometer. The developed color is directly proportional to the amount of α-SMA present in the lysate. […] Expected Bliss additivism score (E) was firstly determined by the equation: E=(A+B)-(A×B) where A and B are the percentage inhibitions converted into fractions within a range of 0 to 1 of NTZ (A) and a given statin (B) at a given dose. […] For each product combination (NTZ+statin), an additional total Bliss score was calculated by summation of all EOB. […] The significance of the observed differences between NTZ/statin or TZ/statin and single agents were estimated by a student t-test or Mann-Whitney Rank Sum Test using Sigma Plot 11.0 software [*: p<0.05; **: p<0.01; ***: p<0.001].
A general note: ELISA stands for enzyme-linked immunosorbent assay.

With `CC(C)c1c(C(=O)Nc2ccccc2)c(-c2ccccc2)c(-c2ccc(F)cc2)n1CC[C@@H](O)C[C@@H](O)CC(=O)O` [atorvastatin], the IC50 lay within 1000 to 3000 nM.
For the molecule `CC[C@H](C)C(=O)O[C@H]1C[C@@H](C)C=C2C=C[C@H](C)[C@H](CC[C@@H]3C[C@@H](O)CC(=O)O3)[C@H]21` [lovastatin], the IC50 is 1000 to 3000 nM.
Consider `CC[C@H](C)C(=O)O[C@H]1C[C@H](O)C=C2C=C[C@H](C)[C@H](CC[C@@H](O)C[C@@H](O)CC(=O)O)[C@H]21` [pravastatin], for which the “antifibrotic activity as single agent (α-SMA, dose-response)” value was “inactive”.
With `O=C(O)C[C@H](O)C[C@H](O)/C=C/c1c(C2CC2)nc2ccccc2c1-c1ccc(F)cc1` [pitavastatin], the IC50 was less than 1000 nM.
As to `CC(C)n1c(/C=C/C(O)CC(O)CC(=O)O)c(-c2ccc(F)cc2)c2ccccc21` (stereo not drawn) [fluvastatin], the IC50 is less than 1000 nM.
`CC(C)c1nc(N(C)S(C)(=O)=O)nc(-c2ccc(F)cc2)c1/C=C/[C@@H](O)C[C@@H](O)CC(=O)O` [rosuvastatin]: the “antifibrotic activity as single agent (α-SMA, dose-response)” value is “significant antifibrotic activity but only at the highest doses”.

The term IC50 denotes the concentration that gives 50% inhibition.
